# Test results from patent US20070224194A1, “Methods for Inhibiting Angiogenesis and/or Lymphangiogenesis” (LUDWIG INSTITUTE FOR CANCER RESEARCH, priority 2004, published 2007).
# The star is where a group is joined. Decanoyl = CCCCCCCCCC(=O)*; CH2Cl = ClC*
# Assays:
# [1] = system: proteolytic processing of VEGF-C; assay: Processing of VEGF-C secreted by 293EBNA cells expressing VEGF-C-FULL-N-Myc (immunoprecipitation/Western blot); assay type: cell-based, human; details: 0, 1, 10, 50 or 100 μM, 18 hours, Western blot
# Procedure: 293EBNA cells stably transfected with an expression construct encoding VEGF-C-FULL-N-Myc (full-length VEGF-C tagged with Myc at the N-terminus) or VEGF-D-FULL-N-FLAG (full-length VEGF-D tagged with FLAG at the N-terminus) secrete fully and partially processed forms of VEGF-C or VEGF-D into the culture medium (Joukov et al., EMBO J. 16:3898-3911 1997; Stacker et al., J. Biol. Chem. 274: 32127-32136, 1999). These cells were grown overnight in 24-well plates, seeded with 8×10^4 cells per well. At the time when cultures were initiated in these plates, growth medium was supplemented with Dec-RVKR-CMK (Calbiochem) (dissolved in methanol) to a final concentration of 0, 1, 10, 50 or 100 μM. Solvent control cultures were also established, in which the medium was supplemented with methanol at concentrations equal to those present in the cultures treated with inhibitor. […]
# VEGF-C species were immunoprecipitated from conditioned medium by addition of anti-VEGF-C antibody that binds the VHD and C-terminal propeptide (R&D Systems). […] The precipitated VEGF-C and VEGF-D species were then analysed by Western blot using biotinylated antibodies against the VHD and C terminus of VEGF-C, or the VHD of VEGF-D (R&D Systems) and streptavidin-horse radish peroxidase conjugate (Zymed) (FIGS. 1 and 2). […]
# [2] = system: proteolytic processing of VEGF-DΔN; assay: Processing of VEGF-DΔN by 293EBNA cells (cleavage of C-terminal propeptide from VHD); assay type: cell-based, human; details: for band representing mature VHD from VEGF-DΔN: 1, 10, 50, 100 μM, 18 hours
# Excerpt: (§1) An expression plasmid encoding a truncated derivative of human VEGF-D consisting of the N-terminal propeptide and the VHD tagged at the carboxyl terminus with the FLAG epitope (referred to as VEGF-DΔC) (FIG. 3, top panel) has been previously described (Stacker et al, J. Biol. Chem. 274 32127-32136, 1999). The VEGF-DΔC protein construct facilitates study of cleavage of the N-terminal propeptide from the VHD. The conditioned media of 293EBNA cells stably transfected with the VEGF-DΔC expression plasmid contain a mixture of VEGF-D proteins, including unprocessed VEGF-DΔC, and the proteolytically processed VHD. A second cell line was generated by stable transfection of 293EBNA cells with an expression construct encoding VEGF-DΔN, a truncated derivative of human VEGF-D consisting of the VHD tagged at the amino terminus with the FLAG epitope and C-terminal propeptide (FIG. 3, top panel). This protein construct facilitates study of cleavage of the C-terminal propeptide from the VHD. The conditioned media of 293EBNA cells expressing VEGF-DΔN contain a mixture of VEGF-D proteins, consisting of unprocessed VEGF-DΔN, and the proteolytically processed VHD. The VEGF-DΔN expression plasmid was constructed by replacing the 2-kb EcoRV fragment of the pAPEX-3 construct for full-length VEGF-D with the 2-kb EcoRV fragment of the pAPEX-3 construct for VEGF-DΔNΔC-FLAG (Stacker et al, J. Biol. Chem. 274 32127-32136, 1999).
# The 293EBNA cell lines expressing VEGF-D-FULL-FLAG, VEGF-DΔC or VEGF-DΔN were seeded into 24-well plates (8×10^4 cells/well), in medium supplemented with Dec-RVKR-CMK dissolved in methanol, to a final concentration of 0, 1, 10, 50 or 100 μM. After 18 hours incubation (37° C., 10% CO2 in an humidified incubator), conditioned cell culture media were removed and clarified by centrifugation (5 minutes, 250×g, 4° C.). […] The precipitated VEGF-D species were then analysed by reducing SDS-PAGE and Western blotting using a biotinylated antibody against the VHD of human VEGF-D (R&D Systems), and Streptavidin-horse radish peroxidase conjugate (Zymed).
# [3] = system: proteolytic processing of VEGF-DΔC; assay: Processing of VEGF-DΔC by 293EBNA cells (cleavage of N-terminal propeptide from VHD); assay type: cell-based, human; details: for band representing mature VHD from VEGF-DΔC: 1, 10, 50, 100 μM, 18 hours
# Excerpt: as §1
# The 293EBNA cell lines expressing VEGF-D-FULL-FLAG, VEGF-DΔC or VEGF-DΔN were seeded into 24-well plates (8×10^4 cells/well), in medium supplemented with Dec-RVKR-CMK dissolved in methanol, to a final concentration of 0, 1, 10, 50 or 100 μM. After 18 hours incubation (37° C., 10% CO2 in an humidified incubator), conditioned cell culture media were removed and clarified by centrifugation (5 minutes, 250×g, 4° C.). VEGF-D species were immunoprecipitated from conditioned media of 293EBNA VEGF-DΔC cells by addition of M2-agarose beads (Sigma-Aldrich), that bind the FLAG epitope attached to the carboxyl-terminus of the VHD, and from conditioned media of 293EBNA VEGF-DΔN cells by addition of A2 antiserum, that binds to epitopes within the VHD (Stacker et al, J. Biol. Chem. 274 32127-32136, 1999), followed by incubation with protein-A sepharose beads. Beads and bound proteins were recovered by centrifugation (5 minutes, 250×g, 4° C.) and washed twice with Tris-buffered saline (TBS; 50 mM Tris-Cl, 150 mM NaCl, pH 8.0). The precipitated VEGF-D species were then analysed by reducing SDS-PAGE and Western blotting using a biotinylated antibody against the VHD of human VEGF-D (R&D Systems), and Streptavidin-horse radish peroxidase conjugate (Zymed).
# [4] = system: VEGF-D propeptide processing; assay: VEGF-D processing by Balbc/3T3 cells that naturally produce VEGF-D; assay type: cell-based; details: 100 μM
# Excerpt: Finally, the effect of dec-RVKR-CMK on VEGF-D processing by Balbc/3T3 cells that naturally produce this growth factor (i.e., in cells that had not been transfected so as to express VEGF-D) was examined.
substance,measurement,setting,value
Decanoyl-Arg-Val-Lys-Arg-chloromethylketone (Decanoyl-RVKR-CH2Cl) [Dec-RVKR-CMK],abundance of fully and partially processed forms of VEGF-C,[1],dramatically reduced in abundance in a dose-dependent manner
same,proteolytic processing of VEGF-DΔN,[2]; 100 μM,completely blocked
same,band representing mature VHD from VEGF-DΔN,[2],reduced in abundance in a dose dependent manner
same,band representing mature VHD from VEGF-DΔN,[2]; listed as dec-RVKR-CMK,blocked each of these processing events in a dose-dependent fashion
same,"proteolytic cleavage of the N-terminal propeptide from the VHD, at both Major and Minor cleavage sites",[3],completely abrogated
same,proteolytic processing of VEGF-DΔC,[3]; 100 μM,completely blocked
same,band representing mature VHD from VEGF-DΔC,[3],reduced in abundance in a dose dependent manner
same,band representing mature VHD from VEGF-DΔC,[3]; listed as dec-RVKR-CMK,blocked each of these processing events in a dose-dependent fashion
same,VEGF-D propeptide processing,[4],almost completely blocked
